Assay results from patent publication US10925852B2, “Talc-bound compositions and uses thereof” (THE TRUSTEES OF COLUMBIA UNIVERSITY IN THE CITY OF NEW YORK, priority 2015, dated 2021).
Structures can show the parent of a compound that is named as a salt. Where two headings read alike, the source gives them in different places.

Key:
NCI-28H cells [1] = assay: Cytotoxicity assay (MTS) of NCI-28H cells: doxorubicin, cisplatin, paclitaxel, talc, talc bound to these drugs (Example 21); format: cell-based; conditions: 72 hrs
Procedure: Compare survival rate between each formulation.
1. Set up 3 cytotoxicity plates for Day 2 experiment: trypsinize NCI-28H cells (T-75 flask, passage 12): • Remove old medium, wash cells with 7 ml DPBS, remove DPBS, add 2 ml trypsin, incubate plates for 1-2′, when cells detached add 6 ml fresh medium, mix cells and medium. • Count cells under the microscope using the glass slide. […] If we need 200 wells, in each well will be 5,000 cells in 0.1 ml; so total we need 1,000,000 cells in 20 ml. […] In 50 ml Falcon tube, combine 16.6 ml fresh medium and 3.4 ml cells. Gently mix.
3. […] Final solution is 500 μL of 20 μM.
1. […] Take out supernatant.
6. Check the plate and start incubation at 37° C./5% CO2
3. Wash cells 1×300 μL media, remove final wash.

NCI-28H cells [2] = system: NCI-28H cells
NCI-28H cells [3] = conditions: 72 hrs

For `N.N.[Cl][Pt][Cl]` [cisplatin, Cisplatin], the “Average reading: cells + cisplatin (absorbance 490 nm)” value (“Average reading: cells + cisplatin” for short) (NCI-28H cells [1]; Cisplatin 0.0013 μM) was 1.37, the “Average reading: cells + cisplatin” value (NCI-28H cells [1]; Cisplatin 0.0064 μM) was 1.19 and the “Average reading: cells + cisplatin” value (NCI-28H cells [1]; Cisplatin 0.8 μM) was 1.23. For the same compound, the “Average reading: cells + cisplatin” value (NCI-28H cells [1]; Cisplatin 4 μM) was 1.18, the “Average reading: cells + cisplatin” value (NCI-28H cells [1]; Cisplatin 20 μM) was 0.48 and the “Average reading: cells + cisplatin” value (NCI-28H cells [1]; Cisplatin 100 μM) was 0.59.
With `Nc1ccn([C@@H]2O[C@H](CO)[C@@H](O)C2(F)F)c(=O)n1` [gemcitabine, Gemcitabine] the “cytotoxic effect on NCI-28H cells (in words)” value (NCI-28H cells [2]) was “clear cytotoxic effect”.
With `Cc1c(N)nc([C@H](CC(N)=O)NCC(N)C(N)=O)nc1C(=O)N[C@H](C(=O)N[C@H](C)[C@@H](O)[C@H](C)C(=O)N[C@H](C(=O)NCCc1nc(-c2nc(C(=O)NCCC[S+](C)C)cs2)cs1)[C@@H](C)O)C(O[C@@H]1OC(CO)[C@@H](O)C(O)C1O[C@H]1OC(CO)[C@@H](O)C(OC(N)=O)C1O)c1c[nH]cn1` (some centres unmarked) [bleomycin, Bleomycin sulfate] the “% survival NCI-28H cells after treatment with BLEOMYCIN” value (“% survival NCI-28H cells” below) (NCI-28H cells [3]; Bleomycin 0.004 ug/ml) was 92.41%, the “% survival NCI-28H cells” value (NCI-28H cells [3]; Bleomycin 0.015 ug/ml) was 88.25% and the “% survival NCI-28H cells” value (NCI-28H cells [3]; Bleomycin 0.06 ug/ml) was 93.38%. The “% survival NCI-28H cells” value (NCI-28H cells [3]; Bleomycin 0.24 ug/ml) was 91.86%, the “% survival NCI-28H cells” value (NCI-28H cells [3]; Bleomycin 0.97 ug/ml) was 86.19% and the “% survival NCI-28H cells” value (NCI-28H cells [3]; Bleomycin 3.9 ug/ml) was 71.05%. For the same compound, the “% survival NCI-28H cells” value (NCI-28H cells [3]; Bleomycin 15.6 ug/ml) was 74.60%, the “% survival NCI-28H cells” value (NCI-28H cells [3]; Bleomycin 62.5 ug/ml) was 68.76% and the “% survival NCI-28H cells” value (NCI-28H cells [3]; Bleomycin 250 ug/ml) was 47.13%. For the same compound, the “% survival NCI-28H cells” value (NCI-28H cells [3]; Bleomycin 1000 ug/ml) was 24.92%.
In the case of `COc1cccc2c1C(=O)c1c(O)c3c(c(O)c1C2=O)C[C@@](O)(C(=O)CO)C[C@@H]3O[C@H]1C[C@H](N)[C@H](O)[C@H](C)O1` [DOX, Doxorubicin Hydrochloride], the “AVERAGE: cells + DOX (absorbance 490 nm)” value (NCI-28H cells [1]; DOX 0.2 μM) is reported as 0.89, the “AVERAGE: cells + DOX (absorbance 490 nm)” value (NCI-28H cells [1]; DOX 1 μM) is reported as 0.67 and the “AVERAGE: cells + DOX (absorbance 490 nm)” value (NCI-28H cells [1]; DOX 5 μM) is reported as 0.63.
